Laboratory results reported in US9572788B2, “Cell permeable inhibitors of anaphase promoting complex” (President and Fellows of Harvard College, priority 2014, dated 2017).
Like-named read-outs stand apart in the source and are kept apart here.

Assays:
[1] = tested on: HeLa H2B-GFP cells; experiment: Live cell imaging of mitotic duration and cell fate; format: cell-based, human; details: for Response of arrested cells to roscovitine: 100 μM roscovitine at 12 h after release; for Mitotic phenotype: synchronized HeLa H2B-GFP
Protocol: Detailed siRNA transfection and drug treatment schemes are described in supplemental experimental procedures. HeLa H2B-GFP cells were plated in DMEM with 10% FBS at 20% confluence. […] Live cell imaging was performed at 12 minute intervals on a Nikon TE2000E PFS inverted microscope fitted with an incubation chamber maintained at 37° C. and supplied with 5% CO2. Cell division was tracked by manual inspection of movies, and mitotic duration was measured as the time between the first frame of chromosome condensation and the frame of chromosome segregation (anaphase), decondensation (mitotic exit without anaphase) or cell death (chromosomes shrinking to a small bright dot).
The imaging plate was mounted onto a motorized stage (Prior ProScan II) on a Nikon TE2000E PFS inverted microscope fitted with an incubation chamber maintained at 37° C. and supplied with 5% CO2. A 20× Plan Apo 0.75 NA or 40× Plan Fluor 0.75 NA objective lens was used as indicated and images were collected with 2×2 binning. […] TIFF files of each image were exported from Elements and used to build stacks and Quicktime movies with Metamorph imaging software (Molecular Devices). For manual analysis, mitotic duration is counted as the time between the first frame of chromosome condensation and the frame of chromosome segregation (anaphase) or decondensation (mitotic exit in the presence of nocodazole) or cell death (chromosomes shrinking to a small bright dot).
HeLa H2B-GFP cells were plated in a 24-well plate in DMEM 10% FBS at 20% confluence one day prior to experiment and synchronized by double thymidine block as described above. […] Live cell imaging was set up as described above.
HeLa H2B-GFP cells were plated in a 24-well plate in DMEM+10% FBS at 20% confluence one day prior to the experiment and synchronized by double thymidine block as described above. The cells were released from the first thymidine block into 200 μl OptiMem without FBS. Transfection was performed immediately after the first thymidine release. […] The two mixtures were left at room temperature for 5 min before being mixed together and incubated for additional 20 min and then added to the cells to a final volume of 250 μl. 4 h after transfection, 250 μl of DMEM+20% FBS were added to cells.
HeLa H2B-GFP cells were plated in glass-bottom 24-well plates at 20% confluence one day prior to the experiment and synchronized by double thymidine block as described above. […] Cells were treated with 100 nM Hesperadin or DMSO 8 h after release from the second thymidine block and live cell imaging was set up as described above.
HeLa H2B-GFP cells were plated in a 24-well plate in DMEM+10% FBS at 20% confluence one day prior to experiment and synchronized by double thymidine block as synchronized above. […] Live cell imaging was set up as described above.
HeLa H2B-GFP cells were plated in a 24-well plate in DMEM+10% FBS at 20% confluence one day prior to experiment and synchronized by double thymidine block as described above. […] Untreated cells were used as the control. Live cell imaging was set up as described above. […] Alternatively, at 10 h after release from the second block, 10 μM MG132 with or without 25 μg/ml cycloheximide was added to the cells. […] Live cell imaging was set up as described above.
HeLa H2B-GFP cells were plated in a 24-well plate in DMEM+10% FBS at 20% confluence one day prior to experiment and synchronized by double thymidine block as described above. Mad2 siRNA transfection was performed as described above. At 10 h after release from the second block, 10 μM MG132 with or without 25 μg/ml cycloheximide was added to the cells. Live cell imaging was set up as described above. Manual analysis was focused only on cells that entered mitosis after MG132 addition.
Live cell imaging experiments. […] Nocodazole, taxol, proTAME, cyclinal and hesperadin were added to cells at 8 h after release. MG132 was added to cells at 10 h after release to allow mitotic entry.

[2] = tested on: HeLa H2B-GFP cells; experiment: Emi1 knockdown and proTAME rescue; format: cell-based, human; details: 12 μM
Protocol: HeLa H2B-GFP cells were plated in glass-bottom 24-well plates at 20% confluence one day prior to the experiment. Cells were transfected with a pool of Emi1 siRNA (Dharmacon M-012434-01, 5′-[…]-3′ (SEQ ID NO: 4); 5′-[…]-3′ (SEQ ID NO: 5); 5′-[…]-3′ (SEQ ID NO: 6); 5′-[…]-3′ (SEQ ID NO: 7)) or Control#3 siRNA (described above) at 18.5 nM with DharmaFect3. After 24 h, cells were treated with 0.06% DMSO or 12 μM proTAME. Live cell imaging was set up as described above.

[3] = ProTAME activation analysis (LC/MS) in extract; format: in vitro ADME; details: 50 μM in interphase Xenopus extract
Protocol: ProTAME was added to interphase Xenopus extract at 50 μM or cell growth media at 20 μM. For interphase extract, 800 μl of sample was collected at 0 min, 10 min, 20 min and 30 min after addition of proTAME and diluted to 8 ml with XB. For cell culture, approximately 800,000 cells were collected at 1 h, 2 h and 3 h after addition of proTAME and lysed in 400 μl lysis buffer as described above and subsequently diluted to 4 ml with lysis buffer. The diluted extract or cell lysate was extracted with 1.5 volume of ethyl acetate. The extracts were dried in vacuo and the dry extracts were resuspended in 200 μl of methanol for LC/MS analysis. LC/MS data were obtained using an Agilent series 1200 LC/6130 MS system with a reversed-phase C18 column (Phenomenex Luna C18(2), 4.6 mm×100 mm, 5 μm) and a CH3CN/H2O gradient solvent system beginning with 10% aqueous CH3CN and ending at 100% CH3CN at 20 min. 10 μl of each sample was injected for each analysis.

[4] = Example 3, Mad2 knockdown, 12 μM proTAME, 300 nM nocodazole
[5] = Example 3, without Mad2 knockdown, 12 μM proTAME, 300 nM nocodazole
[6] = Fig 6A, MAD2 siRNA, 12 μM proTAME, 300 nM nocodazole
[7] = Fig 6A, control siRNA, 12 μM proTAME, 300 nM nocodazole
[8] = Fig 6C, compounds 8 h after release, 12 μM proTAME, 300 nM nocodazole, 150 nM taxol, 100 nM hesperadin
[9] = Fig 8A, 12 μM proTAME, 300 nM nocodazole or 150 nM taxol, ± 25 μg/ml cycloheximide 4 h later
[10] = double-thymidine synchronized cells, Mad2 knockdown
[11] = double-thymidine synchronized cells, without Mad2 knockdown
[12] = Fig 5A, synchronized HeLa cells, 780 nM
[13] = Fig 5A, synchronized HeLa cells, 3 μM
[14] = Fig 5A, synchronized HeLa cells, 12 μM
[15] = Fig 5B, control siRNA, low proTAME concentration (4 μM)
[16] = Fig 5B, partial Cdc20 knockdown (Cdc20 siRNA), proTAME 4 μM
[17] = Fig S5G, after washout from nocodazole-induced arrest, release in proTAME 12 μM ± hesperadin 100 nM

## COC(=O)Nc1nc2ccc(C(=O)c3cccs3)cc2[nH]1 [Nocodazole, reference compound]
[1]; 10 nM nocodazole
  Prolongation of mitosis: 20 min
[1]; 10 nM, SAC-proficient cells
  Extension of mitotic duration: 20 min
[1]
  Response of arrested cells to roscovitine: induced instantaneous mitotic exit
[1]; [4]
  Median mitotic duration: 30 min
[1]; [5]
  Median mitotic duration: 1230 min
[1]; [6]
  Average mitotic duration: 98.2 min
  Median mitotic duration: 36 min
[1]; [7]
  Average mitotic duration: 1680.1 min
  Median mitotic duration: 1812 min
[1]; [8]
  Average mitotic duration: 1851.8 min
  Median mitotic duration: 2094 min
[1]; [9]
  Average mitotic duration: 1777.0 min
  Median mitotic duration: 2160 min
[1]; [10]
  Duration of mitotic arrest: 0.6 h
[1]; [11]
  Duration of mitotic arrest: 30 h

## COC(=O)[C@H](CCCN/C(=N\C(=O)OCOC(=O)Cc1ccccc1)NC(=O)OCOC(=O)Cc1ccccc1)NS(=O)(=O)c1ccc(C)cc1 [proTAME]
[2]
  Rescue of mitotic entry defect in Emi1-depleted cells: substantially rescued the mitotic entry defect caused by depletion of Emi1
[3]
  Conversion of prodrug to TAME: rapidly converted to TAME
[1]
  Average mitotic duration: 1512.4 min
  Median mitotic duration: 1488 min
  Response of arrested cells to roscovitine: induces rapid mitotic exit
[1]; 3 μM
  Mitotic duration: 5 h
[1]; 12 μM proTAME
  Duration of mitotic arrest: over 28 h
[1]; 12 μM, SAC inactivated by Mad2 depletion
  Extension of mitotic duration: 72 min
[1]; 12 μM, intact SAC
  Extension of mitotic duration: 1380 min
[1]; Cdc20 levels reduced by 50% by siRNA, 4 μM
  Mitotic duration: 19.4 h
[1]; Example 2, 12 μM proTAME, DIC imaging
  Duration of mitotic arrest: over 10 hours
[1]; Example 2, 12 (μM) proTAME, fluorescence imaging
  Duration of metaphase arrest: more than 8 hours
[1]; Example 2, HeLa H2B-GFP fluorescence imaging, 3 μM proTAME, proAAME control
  Mitotic duration: 2 h
[1]; [4]
  Median mitotic duration: 120 min
[1]; [5]
  Median mitotic duration: 420 min
[1]; [12]
  Average mitotic duration: 165.4 min
  Median mitotic duration: 156 min
[1]; [13]
  Average mitotic duration: 444.6 min
  Median mitotic duration: 348 min
[1]; [14]
  Average mitotic duration: 1640.5 min
  Median mitotic duration: 1680 min
[1]; [15]
  Average mitotic duration: 496.5 min
  Median mitotic duration: 288 min
[1]; [16]
  Average mitotic duration: 1235.3 min
  Median mitotic duration: 1170 min
[1]; [6]
  Average mitotic duration: 121.7 min
  Median mitotic duration: 84 min
[1]; [8]
  Average mitotic duration: 1329.3 min
  Median mitotic duration: 1272 min
[1]; [9]
  Average mitotic duration: 1052.0 min
  Median mitotic duration: 972 min
[1]; [17]
  Average mitotic duration: 1516.4 min
  Median mitotic duration: 1410 min
[1]; Mad2-knockdown cells, proTAME 12 μM, cyclinal 100 μM
  Effect on mitotic exit: only transiently delayed mitotic exit
[1]; Mad2 knockdown cells (12 min without proTAME)
  Median mitotic duration: 84 min
[1]; control-transfected cells, 4 μM
  Mitotic duration: 4.8 h
[1]; [10]
  Duration of mitotic arrest: 1.4 h
[1]; [11]
  Duration of mitotic arrest: 24.6 h
[1]; in the absence of Mad2
  Duration of mitotic arrest: approximately 2 hours
[1]; in the presence of hesperadin
  Effect on mitotic exit: only transiently delayed mitotic exit
[1]; 780 nM or 3 μM
  Mitotic phenotype: remained in metaphase for up to several hours, but then proceeded through a normal anaphase
[1]; 12 μM
  Mitotic phenotype: arrested in metaphase and subsequently died
[1]; synchronized, drugs 10 hrs after release, proTAME 1 μM, MG132 0.5 μM
  Median mitotic arrest: 216 min
[1]; synchronized, drugs 10 hrs after release, proTAME 3 μM, low-dose MG132
  Median mitotic delay/arrest: 438 min
[1]; unsynchronized HeLa H2B-GFP, taxol 10 nM, proTAME 3 μM, control 60 min
  Median mitotic duration: 132 min
